Source: PubChem BioAssay (NCI)
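96-well plates; 48 h exposure; 5 concentrations. Endpoints by linear interpolation between flanking doses. Not reached: highest tested concentration assigned. Definition used: TGI = concentration required for complete inhibition of growth.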

Experiments:
Assay in all cases: inhibition of tumour cell growth, NCI panel, 48 h
[1] = system: 786-0 renal
[2] = system: A498 renal
[3] = system: A549 NSCLC
[4] = system: ACHN renal
[5] = system: CAKI-1 renal
[6] = system: CCRF-CEM leukemia
[7] = system: COLO 205 colon
[8] = system: DLD-1 colon
[9] = system: DMS 114 small cell lung
[10] = system: DMS 273 small cell lung
[11] = system: EKVX NSCLC
[12] = system: HCC-2998 colon
[13] = system: HCT-116 colon
[14] = system: HCT-15 colon
[15] = system: HL-60(TB) leukemia
[16] = system: HOP-18 NSCLC
[17] = system: HOP-62 NSCLC
[18] = system: HOP-92 NSCLC
[19] = system: HT29 colon
[20] = system: IGROV1 ovarian
[21] = system: K-562 leukemia
[22] = system: KM12 colon
[23] = system: KM20L2 colon
[24] = system: LOX IMVI melanoma
[25] = system: LXFL 529 NSCLC
[26] = system: M14 melanoma
[27] = system: M19-MEL melanoma
[28] = system: MALME-3M melanoma
[29] = system: MOLT-4 leukemia
[30] = system: NCI-H226 lung
[31] = system: NCI-H23 lung
[32] = system: NCI-H460 lung
[33] = system: NCI-H522 lung
[34] = system: OVCAR-3 ovarian
[35] = system: OVCAR-4 ovarian
[36] = system: OVCAR-5 ovarian
[37] = system: OVCAR-8 ovarian
[38] = system: RPMI-8226 leukemia
[39] = system: RXF 393 renal
[40] = system: SF-268 CNS
[41] = system: SF-295 CNS
[42] = system: SF-539 CNS
[43] = system: SK-MEL-2 melanoma
[44] = system: SK-MEL-28 melanoma
[45] = system: SK-MEL-5 melanoma
[46] = system: SK-OV-3 ovarian
[47] = system: SN12C renal
[48] = system: SNB-19 CNS
[49] = system: SNB-75 CNS
[50] = system: SNB-78 CNS
[51] = system: SR leukemia
[52] = system: TK-10 renal
[53] = system: U251 CNS
[54] = system: UACC-257 melanoma
[55] = system: UACC-62 melanoma
[56] = system: UO-31 renal
[57] = system: XF 498 CNS

Q: Which results are given for `CCOC(OC1=C(C#N)CCCC1)C(C)[Se]c1ccccc1` (configuration not stated)?
A: TGI [1]: 31.4 µM; TGI [2]: > 100 µM; TGI [3]: > 100 µM; TGI [4]: > 100 µM; TGI [5]: > 100 µM; TGI [6]: 65 µM; TGI [7]: > 100 µM; TGI [8]: > 100 µM; TGI [9]: 15.4 µM; TGI [10]: 33.7 µM; TGI [11]: > 100 µM; TGI [12]: > 100 µM; TGI [13]: > 100 µM; TGI [14]: > 100 µM; TGI [15]: 49.4 µM; TGI [16]: > 100 µM; TGI [17]: > 100 µM; TGI [18]: 67.3 µM; TGI [19]: > 100 µM; TGI [20]: > 100 µM; TGI [21]: > 100 µM; TGI [22]: > 100 µM; TGI [23]: > 100 µM; TGI [24]: 30.5 µM; TGI [25]: > 100 µM; TGI [26]: > 100 µM; TGI [27]: 96.5 µM; TGI [28]: > 100 µM; TGI [29]: 79.9 µM; TGI [30]: > 100 µM; TGI [31]: 39.4 µM; TGI [32]: > 100 µM; TGI [33]: 30.8 µM; TGI [34]: > 100 µM; TGI [35]: 47.6 µM; TGI [36]: > 100 µM; TGI [37]: 63.9 µM; TGI [38]: 84 µM; TGI [39]: 29.8 µM; TGI [40]: 46.6 µM; TGI [41]: > 100 µM; TGI [42]: 38 µM; TGI [43]: > 100 µM; TGI [44]: 71.6 µM; TGI [45]: 55.6 µM; TGI [46]: > 100 µM; TGI [47]: 89.9 µM; TGI [48]: > 100 µM; TGI [49]: > 100 µM; TGI [50]: > 100 µM; TGI [51]: 63.8 µM; TGI [52]: > 100 µM; TGI [53]: 32 µM; TGI [54]: > 100 µM; TGI [55]: 63.2 µM; TGI [56]: > 100 µM; TGI [57]: 57 µM
